Results on 7 molecules are retold here after ChEMBL document CHEMBL1921688, “Alkaloids from Chelidonium majus and their inhibitory effects on LPS-induced NO production in RAW264.7 cells” (Bioorg Med Chem Lett, 2011).

Activity calls are given as the source filed them. The rule behind the calls is not given here. A value given as a limit tells only on which side of the number the result lay.

The IC50 is the concentration at which inhibition is half-maximal.

Data set [1] concerns RAW264.7. In words: Antiinflammatory activity in mouse RAW264.7 cells assessed as inhibition of LPS-induced nitric oxide production after 24 hrs by griess assay. Type of data set: functional, cell-based. The following applies: RAW264.7, 24 h. A general note: Nitrite, measured by Griess reagent, commonly stands in for NO production.
The subject of data set [2] is RAW264.7. In words: Cytotoxicity against mouse RAW264.7 cells assessed as cell viability at 50 uM after 24 hrs by MTT assay. Type of data set: cell-based. Particulars: raw264.7, 24 h. (In general: Tetrazolium assays rely on reduction of a dye to a coloured formazan, in cell work by metabolically active cells.)
Data set [3] has as its system RAW264.7. In words: Antiinflammatory activity in mouse RAW264.7 cells assessed as inhibition of LPS-induced iNOS production after 18 hrs by Western blot analysis. In kind it is functional, cell-based. (In general: In western blotting, separated proteins are transferred to a membrane and probed.)
The subject of data set [4] is RAW264.7. In words: Antiinflammatory activity in mouse RAW264.7 cells assessed as inhibition of LPS-induced iNOS production at 1 uM after 18 hrs by Western blot analysis. Type of data set: functional, cell-based.
The subject of data set [5] is RAW264.7. In words: Antiinflammatory activity in mouse RAW264.7 cells assessed as inhibition of LPS-induced COX2 production after 18 hrs by Western blot analysis. In kind it is functional, cell-based.
The test system of data set [6] is RAW264.7. As to the kind of experiment: Antiinflammatory activity in mouse RAW264.7 cells assessed as inhibition of LPS-induced COX2 production at 3 uM after 18 hrs by Western blot analysis. In kind it is functional, cell-based.
In data set [7] the test system is RAW264.7. As to the kind of experiment: Antiinflammatory activity in mouse RAW264.7 cells assessed as inhibition of LPS-induced iNOS promoter activity. Type of data set: functional, cell-based.
The test system of data set [8] is RAW264.7. As to the kind of experiment: Antiinflammatory activity in mouse RAW264.7 cells assessed as inhibition of LPS-induced COX2 promoter activity. In kind it is functional, cell-based.
The test system of data set [9] is RAW264.7. In words: Antiinflammatory activity in mouse RAW264.7 cells assessed as inhibition of LPS-induced iNOS production at 3 uM after 18 hrs by Western blot analysis. Type of data set: functional, cell-based.

Turning to `COC(=O)CC1c2c(ccc3c2OCO3)-c2ccc3cc4c(cc3c2N1C)OCO4` (stereo not given), the IC50 in data set [1] was over 50 µM. For the same molecule, in data set [2], the Activity entry is listed as “Non-toxic”.
Regarding `c1cc2c(c3c1C[C@H]1c4cc5c(cc4CCN1C3)OCO5)OCO2` [STYLOPINE], in [1], the IC50 was over 50 µM. The Activity result in data set [2] is “Non-toxic”.
For `CN1CCc2cc3c(cc2C(=O)Cc2ccc4c(c2C1)OCO4)OCO3` [PROTOPINE], the Activity entry in [2] is recorded as “Non-toxic”.
Consider `O[C@@H]1Cc2cc3c(cc2[C@@H]2NCc4c(ccc5c4OCO5)[C@H]12)OCO3` [NORCHELIDONINE], for which the IC50 in data set [1] came to 16.5 µM. Besides, the Activity result in [2] is given as “Non-toxic”.
Taken in the same sequence, the figures for `COc1ccc2cc3[n+](cc2c1OC)CCc1cc2c(cc1-3)OCO2` [BERBERINE] were over 30 µM and “Non-toxic”.
As to `CN1c2c(ccc3cc4c(cc23)OCO4)-c2ccc3c(c2C1O)OCO3` (stereo not given), in data set [1], the half-maximal inhibitory concentration (IC50) came to 4.5 µM. Besides, in [2], the Activity entry is recorded as “Non-toxic”. For the same molecule, the inhibition result in [3] and in data set [5] was “Dose-dependent effect” in each case. The inhibition result in data set [4], in data set [6], in [7] and in [8] was “Active” in each case.
Turning to `CN1Cc2c(ccc3c2OCO3)[C@@H]2[C@H]1c1cc3c(cc1C[C@@H]2O)OCO3` [CHELIDONINE], the IC50 in data set [1] was found to be 7.3 µM. In addition, the Activity result in data set [2] was “Non-toxic”. Moreover, the inhibition entry in [3] and in data set [5] was “Dose-dependent effect” in each case. Further, the inhibition result in [9], in data set [6], in [7] and in data set [8] was “Active” throughout.
